Source: patent US20260199514A1, “PRODRUG STRATEGY THAT ENHANCES EFFICACY AND LOWERS SYSTEMIC TOXICITY OF MERTANSINE” (priority 2022, published 2026)

Tests used:
[1] = test system: NCI-H929 MM Cells; assay: In vitro cytotoxicity assay (CCK-8); format: cell-based, human; conditions: NCI-H929 cell line
Description: Next, we evaluated the efficacy of liposomal DM1-Prodrug formulations against MM cells in vitro. For this, NCI-H929 cells were incubated with NP[Prodrug], TNP[Prodrug], free DM1-Prodrug or free drug for 24 h, 48 h and 72 h, and cell viability was determined using cell counting kit-8 (CCK-8) reagent. […] The differences in the IC50 values between free drug and the nanoparticles is possibly attributed to the release kinetics of active DM1 from nanoparticles.
Cell Culture. NCI-H929 cells were purchased from ATCC (Rockville, MD). Cells were cultured in RPMI 1640 media (Corning, NY). The cell line was supplemented with 20% fetal bovine serum (FBS), 2 mM L-Glutamine (Gibco, CA), 100U/mL penicillin (Gibco, CA), 100 μg/mL streptomycin (Gibco) and 55 μM 2-mercaptoethanol.
Cytotoxicity Assays. 15×10^3 cells/well were plated 24 h prior to each experiment in a 96-well plate. The following day, cells were treated with respective cytotoxic agents at varying concentrations. Cytotoxicity was assessed at 24 h, 48 h and 72 h using Cell Counting Kit-8 Reagent via reading absorbance at 450 nm. Viability was normalized to wells containing untreated cells.

[2] = test system: NCI-H929 cells; assay: Apoptosis assay (Annexin-V / PI staining); format: cell-based, human; conditions: 20 nM equivalence of DM1, 24 h, Annexin-V and PI
Description: NCI-H929 cells were incubated with 20 nM equivalence of DM1 concentration either in the form of one of the liposomal prodrug formulations, or the free drug for 24 h.
Apoptosis Assay. NCI-H929 cells were cultured in the presence of 20 nM of DM1 equivalent concentrations of NP[Prodrug], TNP[Prodrug], and free drug for 24 h. Cells were washed and stained using the Dead Cell Apoptosis Kit by following and optimizing the manufacturer's protocol. Briefly, cells were washed with cold PBS, resuspended in 1X binding buffer, followed by Annexin-V and PI staining for 30 min at room temperature. Staining was performed by adding 7 μL of Alexa Fluor® 488 Annexin-V and 8 μL of 100 μg/mL PI working solution to each 100 μL of cell suspensions. Cells in treatment groups and untreated control were stained with Annexin-V and PI. Fluorescent microscopy images were acquired by using an EVOS® FL Auto Imaging System.

[3] = Maximum tolerated dose (MTD) study in healthy mice; format: in vivo; conditions: healthy NOD-SCID mice
Description: When mice were injected with free DM1 at a dose over 0.5 mg/kg twice on days 0 and 3, we observed that all animals lost over 15% of their body weight and were morbid before the end of the week (FIG. 5). […] We concluded that liposomal prodrug formulations made treatment with DM1 possible in comparison to free DM1, where its intense systemic toxicity made it a non-viable treatment option. With this approach of liposomal prodrug formulation, even the non-targeted formulations already achieved an improved therapeutic index for DM1.
Maximum Tolerated Dose (MTD) Study. […] Free drug (DM1) was administered according to the recommendations of the manufacturer. Briefly, Free drug treatments were prepared by dissolving in 10% DMSO and 90% saline containing (20% Hydroxypropyl-β-cyclodextrin as excipient) and then administered intravenously into mice.

## COc1cc2cc(c1Cl)N(C)C(=O)C[C@H](OC(=O)[C@H](C)N(C)C(=O)CCS)[C@]1(C)O[C@H]1[C@H](C)[C@@H]1C[C@@](O)(NC(=O)O1)[C@H](OC)/C=C/C=C(\C)C2 [free DM1, Mertansine]
[1]; 24 hours
  IC50: 12 nM
[1]; 72 hours
  IC50: 9 nM
[2]
  induction of apoptosis of MM cells: induce apoptosis
[3]; dose over 0.5 mg/kg twice on days 0 and 3
  body weight loss: over 15%
[3]; injections on days 0 and 3, equivalent DM1 doses (nanoparticles up to 4 mg/kg)
  toxicity / side-effects in MTD study: morbid
